Assay results from PMC12851007 (Angewandte Chemie (International Ed. in English), 2025).
Like-named read-outs stand apart in the source and are kept apart here. Where a SMILES comes first, the peptide text is derived from it.

Test: CF dye efflux assay, POPC vesicles
Type: biochemical
Details: error = SD of fit
Text: Time-dep endent fluores cence intensit y traces, I (t), were subsequentl y normalized to fractional intensities, If(t), using equation (1). Therein, I 0 is the intensity just before addition of peptide and I ∞ is the constant intensit y after addition of the calibration cockt ail.
IIf (tt ) = II (tt )−II0II∞ − II0 (1)
The concentration-dependent fractional intensities just before the addition of the calibration cocktail, If, were then normalized to fractional membrane activities, Y, using equation (2).
Therein, If,0 is the fractional intensit y just before addition of the calibration cocktail in absence of peptide and I f,∞ is the constant fractional intensity after addition of the calibration cocktail.
YY = IIf − IIf,0IIf,∞ − IIf,0 (2)
The fractional membrane activities, Y, were subsequently plotted against the peptide concentration, c, and analysed using the Hill equation (3) to obtain the effective molar concentration, EC50, and the Hill coefficient, n. Y0 and Y ma x are the fractional membrane activities in absen ce o f p eptide and at max imal peptide concent rations. For peptides with too little activity to determine Y ma x ex perimentall y, Y max was fixed at 1.0 during fitting.
YY = YY0 + YYmax − YY0nn (3)
Vesicle preparation. 100 µ L of a solution of 25 mg/ml of POPC in chloroform or 200 µ L of a solution of 25 mg/ml of EYPC in chloroform was purged with a stream of nitrogen and dried overnight under high vacuum. The thin lipid film was reh ydrated with 1ml of reh yd ration buffer (= inside buffer, see Table S3 ) b y agitation at room temperature for 30 min and then subjected to 5 freeze- thaw cycles (freezing in liquid nitrogen and thawing at 40 °C).
Subsequently, the liposome suspension was extruded ≥ 15 times through a polycarbonate membrane (pore size 100 nm). Extravesicular components were then removed by size exclusion chromatography using a 1.5 × 12 cm polyprop ylene column (Bio- Rad, German y) with 1.0 g Sephad ex G-50 (medium) as a stationa r y ph ase and the resp ectiv e outside buffer for […]
Ta b l e S 3. Combinations of inside and outside buffer for CF -LUVs.
No. Lipid Inside buffer = rehydration buffer Outside buffer
(1) EYPC 10 mM Hepes, 50 mM CF, pH 7.5 10 mM Hepes, 97 mM NaCl, pH 7.5
(2) POPC 10 mM Hepes, 50 mM CF, pH 7.5 10 mM Hepes, 97 mM NaCl, pH 7.5
(3) POPC 10 mM Hepes, 50 mM CF, pH 7.5 10 mM Hepes, 175 mM glucose, pH 7.5 [a] [a] Glucose b uffers (183 mOsm/L at 25 °C) were used within one week after preparation.
Vesicle quality control. The size distribution of the liposomes was confirmed by DLS to be unimodal and avera ge ve sicles diameters wer e in the ran ge from 115 to 130 nm. The final lipid content in the liposome s uspension after prep ar ation and sep aration w as det ermined b y NMR. CF vesicles are comparabl y leak y and cont ain minor amounts of ex travesi cular CF after a f ew days. When the fluores cence chan ge after vesicl e lys is b y addition of 20 µ L 1.6% (wt/vol) TX-100 was less than a factor of four, the vesicle suspension was no longer used.
Assay protocol. An appropriate volume of the liposome stock solutions was diluted to 2 mL with outside buffer in a 10 ×10 mm quartz glass cuvette to afford a phospholipid concentration of 25 µM. The cuvette was placed into a thermostatted fluorimeter sample holder and gentl y stirred at 300 rpm at (25.0± 0.1) °C. Subsequentl y, the time-dependent change in fluorescence intensity (C F: λ exc = 492 nm, λ em = 517 nm) was recorded during addition of 20 µL peptide stock solution of var ying concentrations at 60 s and 20µ L of a calibration cocktail (1. 6% […]
intensities, If(t), using equation (1) and the concentration- dependent fractional intensities just before the addition of th e calibration co cktail, I f, w ere then normaliz ed to fr actional membran e activities, Y, using equation (2). The fractional membrane activities, Y, were subsequently plotted against the peptide concentration, c, and anal ysed using the Hill equation (3) to obtain […]

[1] = single-channel, 25 µM POPC⸧CF-LUVs, inside 10 mM Hepes, 50 mM CF, pH 7.5, outside 10 mM Hepes, 175 mM glucose, pH 7.5, n = 1, read-out: EC50, CF assay in glucose-containing buffer

For `CC[C@H](C)[C@H](NC(=O)[C@H](CCCCN)NC(=O)[C@@H](NC(=O)[C@@H](N)CCC(N)=O)[C@@H](C)CC)C(=O)N[C@@H](Cc1c[nH]c2ccccc12)C(=O)N[C@@H](Cc1ccccc1)C(=O)N[C@@H](CCC(N)=O)C(=O)N[C@@H](CC(N)=O)C(=O)N[C@@H](CCCNC(=N)N)C(=O)N[C@@H](CCCNC(=N)N)C(=O)N[C@@H](CCSC)C(=O)N[C@@H](CCCCN)C(=O)N[C@@H](Cc1c[nH]c2ccccc12)C(=O)N[C@@H](CCCCN)C(=O)N[C@@H](CCCCN)C(=O)O` (H-QIKIWFQNRRMKWKK-OH), the “EC50, CF assay, isosmotic” value (25 µM POPC⸧CF-LUVs diluted into 10 mM Hepes, 97 mM NaCl, pH 7.5, 25 °C, fractional activity at 590 s, n = 1 (Table S6, Figures S17, S19)) was “too low to determine” and the “EC50, CF assay, POPC” value (25 µM lipid, POPC⊃CF-LUVs, 10 mM Hepes, 97 mM NaCl, pH 7.5, 25 °C, fractional activity at 590 s, Hill fit, n = 1 (Table S5)) was “too low to determine”.

`CC(C)C[C@H](NC(=O)[C@H](CC(C)C)NC(=O)[C@H](CCCNC(=N)N)NC(=O)[C@@H](N)CC(C)C)C(=O)N[C@@H](CCCNC(=N)N)C(=O)N[C@@H](Cc1c[nH]c2ccccc12)C(N)=O` [LRLLRW] (H-LRLLRW-NH2) gave an EC50 [1] of 101 ± 9 µM.

For `CC(C)[C@H](NC(=O)[C@H](CCCCN)NC(=O)[C@H](CCCNC(=N)N)NC(=O)[C@H](CCCCN)NC(=O)[C@H](CCCCN)NC(=O)[C@H](CCCCN)NC(=O)[C@@H]1CCCN1C(=O)[C@H](CCC(N)=O)NC(=O)[C@H](CO)NC(=O)[C@H](Cc1c[nH]c2ccccc12)NC(=O)[C@H](CC(=O)O)NC(=O)[C@@H](NC(=O)[C@H](Cc1c[nH]c2ccccc12)NC(=O)[C@H](Cc1c[nH]c2ccccc12)NC(=O)[C@@H](NC(=O)[C@H](CC(=O)O)NC(=O)[C@H](Cc1c[nH]c2ccccc12)NC(=O)[C@H](Cc1c[nH]c2ccccc12)NC(=O)[C@@H](NC(=O)[C@H](CC(=O)O)NC(=O)[C@@H](N)CCCCN)[C@@H](C)O)[C@@H](C)O)[C@@H](C)O)C(=O)O` [Pep‐1] (H-KDTWWDTWWTDWSQPKKKRKV-OH), the EC50 (25 µM lipid, POPC⊃CF-LUVs, 10 mM Hepes, 97 mM NaCl, pH 7.5, 25 °C, fractional activity at 590 s, Hill fit, n = 1 (Table S5), read-out: EC50, CF assay, POPC) was 114 ± 5 µM and the EC50 [1] was 540 ± 90 µM.

In the case of `CC[C@H](C)[C@H](NC(=O)[C@H](CCCCN)NC(=O)[C@H](CCCCN)NC(=O)[C@H](C)NC(=O)[C@H](CC(C)C)NC(=O)[C@H](C)NC(=O)[C@H](C)NC(=O)[C@H](CC(C)C)NC(=O)[C@H](C)NC(=O)[C@H](CCCCN)NC(=O)[C@H](CC(C)C)NC(=O)[C@H](CC(N)=O)NC(=O)[C@@H](NC(=O)[C@H](CCCCN)NC(=O)CNC(=O)[C@H](CC(C)C)NC(=O)[C@H](CC(C)C)NC(=O)[C@H](Cc1ccc(O)cc1)NC(=O)CNC(=O)[C@H](C)N)[C@@H](C)CC)C(=O)N[C@@H](CC(C)C)C(=O)O` [TP10], the EC50 [1] is reported as 0.12 ± 0.02 µM.
